# Source: patent publication US20260209789A1, “TRIGGER-INDUCIBLE MRNA CIRCULARIZATION” (WESTLAKE UNIVERSITY, priority 2022, published 2026)
# Tests used:
# GNCR: NS3a system = experiment: Grazoprevir-inducible SEAP translation in HEK-293 cells (fold-change, dose-dependence, kinetics vs transcriptional switch); conditions: three tandem GNCR and NS3a repeats
# Source text: Optimization of an L7Ae-based grazoprevir-inducible gene switch. (A) Translational regulation by grazoprevir-dependent STIF association. […] (B) Translational regulation by different grazoprevir-dependent NSP3-fusion proteins. […] (C) Translational regulation by different grazoprevir-dependent L7Ae-fusion proteins.
# Optimized L7Ae- and MCP-based grazoprevir-inducible gene switch in mammalian cells. (A) Optimized grazoprevir-inducible regulation of SEAP translation. […] (B, C) Dose-dependent grazoprevir-inducible SEAP expression.
# Comparative analysis of gene switches based on STIF-based translation and state-of-the-art transcription-centered designs. (A) Kinetics of grazoprevir-inducible SEAP expression. […] (B) Endpoint performance of grazoprevir-induced translational and transcriptional gene switch switches.
# (DocS)3 = target: T1, (DocS)3 (Acetivibrio thermocellus, UniProt A3DH67); experiment: Coh2/DocS-based STIF protein sensor for cytosolic (DocS)3; conditions: different amounts of pSL244, 48 h
# T1 sequence (A3DH67 with tags, fused parts or gaps): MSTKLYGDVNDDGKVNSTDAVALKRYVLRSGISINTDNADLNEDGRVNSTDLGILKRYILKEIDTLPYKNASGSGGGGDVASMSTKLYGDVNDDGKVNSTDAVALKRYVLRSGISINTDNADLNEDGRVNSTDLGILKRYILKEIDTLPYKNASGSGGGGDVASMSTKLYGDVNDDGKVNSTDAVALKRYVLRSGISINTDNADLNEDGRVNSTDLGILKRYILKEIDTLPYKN
# [1] = system: STIF-specific target gene mRNA; experiment: Translational regulation by constitutive bipartite STIF reconstitution (SEAP, NanoLuc) in HEK-293 cells; assay type: cell-based, human; conditions: 48 h
# Source text: FIG. 8. Translational regulation by spontaneous assembly of bipartite STIFs. (A) Translational regulation through constitutive STIF reconstitution. […] Transfection of pcDNA3.1 (+) instead of NSP3-fusion proteins was used as a negative control. […] (B) Compatibility of STIF-mediated translational regulation with split-complementation approaches. […] For (−) conditions, pcDNA3.1 (+) was transfected instead of expression vectors.
# FIG. 9. Translational regulation through constitutive Coh2/DocS-mediated STIF reconstitution. (A) Site-specific translational activation by eIFBP overexpression. HEK-293 cells were (co-) transfected with an expression vector for SEAP-mRNA containing 24 tandem C/D-box-(left panel, pSL355) or MS2-box repeats in the 3′-UTR (right panel, pSL468), constitutive expression vectors for L7Ae (left) or MCP (right) fused to Coh2 (L7Ae-Coh2, pSL83; MCP-Coh2, pSL674) or EGFP (L7Ae-EGFP, pSL1078; MCP-EGFP, pSL435) and constitutive expression vectors for various chimeric Coh2-specific DocS-containing eIFBP fusions (PABP-DocS, pSL47; DocS-eIF4G, pSL87; DocS-eIF4E, pLZ312; DocS-NSP3, pSL66; DocS-VPg, pLZ311). Transfection of pcDNA3.1 (+) instead of DocS- or MCP-expressing vectors was used as a negative control. […] SEAP (left) and NanoLuc levels in culture supernatants (right) were quantified at 48 h post-transfection. […]
# [2] = system: MAPK signaling (phosphorylated ERK2); experiment: Phosphorylation-dependent STIF reconstitution sensor (pE59/ERK2), NanoLuc/FLuc; assay type: cell-based; conditions: 100 ng/mL recombinant human EGF, 48 h
# Source text: FIG. 11. Genetically encoded signalling-specific sensors employing phosphorylation-dependent STIF reconstitution. (A) L7Ae-based STIFs. […] For (−) conditions, pcDNA3.1 (+) was transfected instead of expression vectors. Data presented are mean±SD of relative luciferase activity (NanoLuc/FLuc), n=3 individual experiments. (B) MCP-based STIFs. […] For (−) conditions, pcDNA3.1 (+) was transfected instead of expression vectors. Data presented are mean±SD of relative luciferase activity (NanoLuc/FLuc), n=3 individual experiments.
# Translational regulation by trigger-inducible STIF systems can also be engineered in various other ways. […] In this configuration, HEK-293 cells were transfected with an expression vector for SEAP-mRNA containing 16 tandem MS2-box repeats in the 3′-UTR (SEQ-ID NO: 138) and constitutive expression vectors for MCP-LaM8AK47 (SEQ-ID NO: 241) and mCherry-NSP3 (SEQ-ID NO: 250). […] In the future, engineering of similar sensors for other signalling pathways can be readily achieved by exchanging the pE59 (SEQ-ID NO: 110) and ERK2 (SEQ-ID NO: 85) domains by other signalling specific PPI systems. […]
# [3] = system: STIF-specific target gene mRNA; experiment: STIF-mediated translation of reporter mRNA (SEAP, FLuc, EGFP) in HEK-293 cells; assay type: cell-based, human; conditions: 48 h; for induction folds between basal and activated states (SEAP): HHR-mediated poly (A)-removal, 24 aptamer repeats
# Source text: FIG. 2. Design and validation of different STIF constructs consisting of RNA-binding protein (RBPs) fused to different eIF4F-binding moieties (eIFBP). (A) Synthetic translation initiation factors (STIFs)-mediated translation of L7Ae-specific SEAP-mRNA with shRNA-216-cleavable poly (A). […] (B) STIF-mediated translation of MCP-specific SEAP-mRNA with shRNA-216-cleavable poly (A). […] (C) Correlation between C/D-box-based aptamer region size and STIF-mediated SEAP expression. HEK-293 cells were co-transfected with SEAP expression vectors containing different tandem repeats of the L7Ae-specific C/D-box aptamer ((C/D-box)8, pSL31; (C/D-box)12, pSL81; (C/D-box)16, pSL80; (C/D-box)24, pSL88), an shRNA-216 expression vector (pSL4) and an expression vector for either PABP-L7Ae (ON; pLZ16) or a Coh2-L7Ae protein incapable of binding eIF4F (OFF; pSL44). […] Data presented are mean±SD, n=4 individual experiments. (D) Correlation between MS2-box-based aptamer region size and STIF-mediated SEAP expression. HEK-293 cells were transfected with SEAP expression vectors containing different tandem repeats of the MCP-specific MS2-box aptamer ((MS2-box)8, pSL515; (MS2-box)12, pSL1284; (MS2-box)16, pSL516; (MS2-box)24, pSL468) and constitutive expression vectors for either MCP-NSP3 (ON; pSL95) or an MCP-Coh2 protein incapable of binding eIF4F (OFF; pSL674). […] Data presented are mean±SD, n=4 individual experiments.
# FIG. 5. Translational regulation of SEAP-, Firefly Luciferase and EGFP-mRNA with self-cleavable poly (A). (A) STIF-mediated translation of L7Ae-specific SEAP-mRNA with HHR-cleavable poly (A). […] (B) STIF-mediated translation of MCP-specific SEAP-mRNA with HHR-cleavable poly (A). […] (C, D) STIF-mediated regulation at the protein level of gene expression.
# [4] = Grazoprevir-inducible SEAP production in mice (hydrodynamic tail vein injection); conditions: C57BL/6 mice, hydrodynamically injected gene switch, 3 daily administrations, 24 h after first
# [5] = Treatment of type-1 diabetes by oral grazoprevir-inducible insulin expression; conditions: T1D mice with grazoprevir-inducible insulin gene therapy, oral 3 mg/kg
# [6] = 20 h after first administration
compound,measurement,setting,value
L7Ae-(NS3a)3: trigger-inducible STIF regulator,"regulation performance (fold-change, dose-dependence, activation kinetics)",GNCR: NS3a system,best regulation performance
MCP-(Coh2)3: bipartite STIF regulator,detection of cytosolic (DocS)3 (SEAP),(DocS)3,in a dose-dependent manner
MCP-(NS3a)3: trigger-inducible STIF regulator,"regulation performance (fold-change, dose-dependence, activation kinetics)",GNCR: NS3a system,best regulation performance
MCP-Coh2: bipartite STIF regulator,target gene translation by spontaneous STIF assembly (SEAP),[1],modular and effective translational regulation
"EGF: Animal-free recombinant human EGF (NSDSECPLSHDGYCLHDGVCMYIEALDKYACNCVVGYIGERCQYRDLKWWELR; Epidermal growth factor; UniProt P01133 971-1023, looked up)",reporter levels (NanoLuc/FLuc) vs MAPK activity,[2],increases in reporter levels correlate with increased MAPK activity
MCP-NSP3: STIF fusion protein,induction folds between basal and activated states (SEAP),[3],highest induction folds
same,"regulation of other reporter genes (FLuc, EGFP)",[3]; MCP-specific poly (A)-surrogate,could also regulate a variety of other reporter genes
L7Ae-NSP3: STIF fusion protein,induction folds between basal and activated states (SEAP),[3],highest induction folds
C=C[C@@H]1C[C@]1(NC(=O)[C@@H]1C[C@@H]2CN1C(=O)[C@H](C(C)(C)C)NC(=O)O[C@@H]1C[C@H]1CCCCCc1nc3ccc(OC)cc3nc1O2)C(=O)NS(=O)(=O)C1CC1.O [grazoprevir],oral dose sufficient to fully activate the system (SEAP levels in the bloodstream),[4],3 mg/kg
same,correction of hyperglycemia (fasting glycemia),[5]; [6],almost complete correction
same,correction of insulin deficiency (blood insulin levels),[5]; [6],almost complete correction
same,correction of glucose intolerance (intraperitoneal GTT),[5]; 24 h after first administration,almost complete correction
